According to the supplement of paper PMC11061612:

How the values were obtained:
[1] = system: OCUB-M (Breast Carcinoma); experiment: combination Emax (second highest fraction inhibited in the dose matrix, 72 h); higher = more inhibition; extreme values may be limits of the assay
Outline: (§1)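 Bliss excess equals the observed combination effect minus the expected value EA + EB − EA·EB, where EA and EB are the effects of each agent alone. Combination Emax is the second-highest inhibition within the matrix. Inhibition was scaled from CellTiter-Glo 2.0 luminescence, with 0 set by vehicle wells and 1 by blank wells, after 72 hours of two-drug dosing of cells plated in 1536-well plates.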

[2] = system: SCC-9 (Oral Cavity Carcinoma); experiment: as above
Outline: as §1

[3] = system: KU-19-19 (Bladder Carcinoma); experiment: as above
Outline: as §1

[4] = system: NCI-H2405 (Lung Adenocarcinoma); experiment: as above
Outline: as §1

[5] = system: NCI-H322M (Lung Adenocarcinoma); experiment: as above
Outline: as §1

[6] = system: SCC-3 (B-Cell Non-Hodgkin's Lymphoma); experiment: as above
Outline: as §1

[7] = system: JHH-7 (Hepatocellular Carcinoma); experiment: as above
Outline: as §1

[8] = system: KU-19-19 (Bladder Carcinoma); experiment: Bliss excess, mean over the matrix (fraction); higher = more synergy
Outline: as §1

[9] = system: KP-2 (Pancreatic Carcinoma); experiment: as above
Outline: as §1

[10] = system: HuP-T3 (Pancreatic Carcinoma); experiment: as above
Outline: as §1

[11] = system: GI-1 (Glioblastoma); experiment: as above
Outline: as §1

[12] = system: EBC-1 (Squamous Cell Lung Carcinoma); experiment: as above
Outline: as §1

[13] = system: NH-12 (Neuroblastoma); experiment: as above
Outline: as §1

[14] = system: OCUM-1 (Gastric Carcinoma); experiment: as above
Outline: as §1

[15] = system: VMRC-LCD (Lung Adenocarcinoma); experiment: as above
Outline: as §1

[16] = system: GOTO (Neuroblastoma); experiment: as above
Outline: as §1

[17] = system: EMC-BAC-2 (Non-Small Cell Lung Carcinoma); experiment: as above
Outline: as §1

[18] = system: BT-20 (Breast Carcinoma); experiment: as above
Outline: as §1

[19] = system: DG-75 (Burkitt's Lymphoma); experiment: as above
Outline: as §1

[20] = system: TGBC11TKB (Gastric Carcinoma); experiment: as above
Outline: as §1

SMILES	combination Emax [1]	combination Emax [2]	combination Emax [3]	combination Emax [4]	combination Emax [5]	combination Emax [6]	combination Emax [7]	Bliss excess [8]	Bliss excess [9]	Bliss excess [10]	Bliss excess [11]	Bliss excess [12]	Bliss excess [13]	Bliss excess [14]	Bliss excess [15]	Bliss excess [16]	Bliss excess [17]	Bliss excess [18]	Bliss excess [19]	Bliss excess [20]
CN(C)CCCOc1ccc(-c2ccc3ncc4c(c3c2)n(C2CCOCC2)c(=O)n4C)cn1 [AZD0156] + C=CCn1c(=O)c2cnc(Nc3ccc(N4CCN(C)CC4)cc3)nc2n1-c1cccc(C(C)(C)O)n1 [AZD1775] (first compound max 1 µM, partner max 1 µM)	0.209	0.168	0.751	0.0974	0.77	0.941	0.136	-0.0043	-0.0331	-0.051	-0.0207	-0.0603	-0.0406	0.0183	-0.0399	0.0051	-0.0289	-0.0937	0.0097	-0.0482
CN(C)CCCOc1ccc(-c2ccc3ncc4c(c3c2)n(C2CCOCC2)c(=O)n4C)cn1 [AZD0156] + CCN(CCO)CCCOc1ccc2c(Nc3cc(CC(=O)Nc4cccc(F)c4)[nH]n3)ncnc2c1 [AZD2811] (first compound max 1 µM, 7x7, partner max 1 µM)	0.727	0.186	0.349	0.106	0.123	0.445	0.143	0.0358	-0.0086	-0.0379	0.0555	-0.0117	-0.0263	0.032	-0.0476	0.129	-0.0005	-0.0276	0.057	0.0298
CN(C)CCCOc1ccc(-c2ccc3ncc4c(c3c2)n(C2CCOCC2)c(=O)n4C)cn1 [AZD0156] + C[C@@H]1COCCN1C2=NC(=NC(=C2)C3(CC3)[S@](=N)(=O)C)C4=C5C=CNC5=NC=C4 [AZD6738] (first compound max 1 µM, 7x7, partner max 10 µM)	0.494	0.321	0.869	0.229	0.922	0.998	0.32	0.0275	0.0173	0.0181	-0.0234	0.0195	-0.0215	0.0437	-0.0343	-0.0394	0.0272	0.0152	0.0645	0.0055
CN(C)CCCOc1ccc(-c2ccc3ncc4c(c3c2)n(C2CCOCC2)c(=O)n4C)cn1 [AZD0156] + O=C(c1cc(Cc2n[nH]c(=O)c3ccccc23)ccc1F)N1CCN(C(=O)C2CC2)CC1 [Olaparib] (first compound max 3 µM, partner max 3 µM)	0.273	0.262	0.221	0.256	0.357	0.687	0.339	0.0781	-0.0072	-0.0247	0.0337	0.0413	-0.0131	-0.0199	-0.0489	0.0036	0.147	0.0209	0.0614	-0.0984
C=CCn1c(=O)c2cnc(Nc3ccc(N4CCN(C)CC4)cc3)nc2n1-c1cccc(C(C)(C)O)n1 [AZD1775] + C1CN(CCC1(C(=O)N[C@@H](CCO)C2=CC=C(C=C2)Cl)N)C3=NC=NC4=C3C=CN4 [Capivasertib] (first compound max 3 µM, partner max 3 µM)	0.955	0.638	0.856	0.572	0.768	0.977	0.727	-0.0174	-0.0475	-0.0608	0.0543	-0.0602	-0.0728	-0.0694	-0.0226	-0.0109	0.0514	-0.0742	0.0215	-0.0422
C=CCn1c(=O)c2cnc(Nc3ccc(N4CCN(C)CC4)cc3)nc2n1-c1cccc(C(C)(C)O)n1 [AZD1775] + C[C@@H]1COCCN1C2=NC(=NC(=C2)C3(CC3)[S@](=N)(=O)C)C4=C5C=CNC5=NC=C4 [AZD6738] (first compound max 1 µM, partner max 10 µM)	0.799	0.434	0.811	0.355	0.871	1	0.642	-0.0113	0.0329	0.0338	0.0753	0.0592	0.0262	-0.0391	0.0369	-0.0186	0.0125	0.0448	0.0482	0.0431
